Test results reported in PMC7365685 (ACS chemical biology, 2019).
Changes are numbered by the printed parent chain.

Key:
[1] = biological target: T1, dopamine D2 receptor (D2R; D2SR; SNAP-D2SR) (Homo sapiens, UniProt P14416); assay: inhibition of forskolin-stimulated cAMP; format: cell-based; conditions: functional affinity (dissociation constant of coupled receptor); partial agonist
[2] = biological target: T1, dopamine D2 receptor (D2R; D2SR; SNAP-D2SR); assay: [3H]spiperone competition binding
[3] = biological target: T1, dopamine D2 receptor (D2R; D2SR; SNAP-D2SR); assay: inhibition of forskolin-stimulated cAMP; format: cell-based; conditions: functional affinity; receptor alkylation with phenoxybenzamine
N186^ECL2A D2R = N186^ECL2A D2R (Homo sapiens, UniProt P14416, N186A); assay: biochemical; design: species or system FlpIn CHO
L174^ECL2A D2R = L174^ECL2A D2R (Homo sapiens, UniProt P14416, L174A); assay: biochemical; design: species or system FlpIn CHO
I122^3.40A D2R = biological target: T2, I122^3.40A D2R (Homo sapiens, UniProt P14416, I122A); assay: biochemical; design: species or system FlpIn CHO
T2 sequence (P14416 1-443 I122A): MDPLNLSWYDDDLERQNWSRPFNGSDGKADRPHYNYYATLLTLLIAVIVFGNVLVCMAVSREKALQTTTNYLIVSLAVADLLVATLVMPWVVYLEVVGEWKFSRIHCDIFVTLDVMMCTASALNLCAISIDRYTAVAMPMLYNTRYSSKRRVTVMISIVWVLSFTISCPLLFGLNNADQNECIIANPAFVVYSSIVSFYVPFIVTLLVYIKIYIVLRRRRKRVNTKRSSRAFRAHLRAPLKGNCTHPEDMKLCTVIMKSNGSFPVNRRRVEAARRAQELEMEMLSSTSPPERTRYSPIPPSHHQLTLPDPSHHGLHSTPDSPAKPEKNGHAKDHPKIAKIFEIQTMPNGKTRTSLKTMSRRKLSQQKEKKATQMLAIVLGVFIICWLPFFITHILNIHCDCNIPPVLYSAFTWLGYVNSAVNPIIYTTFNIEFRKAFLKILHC

[4] = biological target: dopamine D2 receptor (D2R; D2SR; SNAP-D2SR) (Homo sapiens, UniProt P14416, F110A); assay: biochemical
[5] = biological target: dopamine D2 receptor (D2R; D2SR; SNAP-D2SR) (Homo sapiens, UniProt P14416, S193A); assay: biochemical
V115^3.33A D2R = biological target: T3, V115^3.33A D2R (Homo sapiens, UniProt P14416, V115A); assay: biochemical
T3 sequence (P14416 1-443 V115A): T2 sequence (P14416 1-443 I122A) with V115A, A122I

C118^3.36A D2R = biological target: T4, C118^3.36A D2R (Homo sapiens, UniProt P14416, C118A); assay: biochemical
T4 sequence (P14416 1-443 C118A): T2 sequence (P14416 1-443 I122A) with C118A, A122I

E181^ECL2A D2R = E181^ECL2A D2R (Homo sapiens, UniProt P14416, E181A); assay: biochemical
[6] = biological target: dopamine D2 receptor (D2R; D2SR; SNAP-D2SR) (Homo sapiens, UniProt P14416, F202A); assay: biochemical
S197^5.46A D2R = S197^5.46A D2R (Homo sapiens, UniProt P14416, S197A); assay: biochemical
I183^ECL2A D2R = I183^ECL2A D2R (Homo sapiens, UniProt P14416, I183A); assay: biochemical
T119^3.37A D2R = biological target: T5, T119^3.37A D2R (Homo sapiens, UniProt P14416, T119A); assay: biochemical
T5 sequence (P14416 1-443 T119A): T2 sequence (P14416 1-443 I122A) with T119A, A122I

T1 sequence (P14416 1-414 isoform P14416-2): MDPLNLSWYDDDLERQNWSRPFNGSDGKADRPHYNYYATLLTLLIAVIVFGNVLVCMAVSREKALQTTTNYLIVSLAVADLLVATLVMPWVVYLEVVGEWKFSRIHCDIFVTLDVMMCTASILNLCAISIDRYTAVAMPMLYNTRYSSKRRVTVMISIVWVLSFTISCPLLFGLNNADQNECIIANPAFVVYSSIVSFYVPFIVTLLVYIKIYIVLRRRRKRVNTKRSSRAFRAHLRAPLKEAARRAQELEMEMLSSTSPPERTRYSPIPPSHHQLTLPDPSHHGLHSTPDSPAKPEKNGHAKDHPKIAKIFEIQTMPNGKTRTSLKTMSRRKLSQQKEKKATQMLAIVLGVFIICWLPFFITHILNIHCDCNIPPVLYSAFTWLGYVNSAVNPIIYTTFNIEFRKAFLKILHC
Chain of S197^5.46A D2R (P14416 whole entry S197A): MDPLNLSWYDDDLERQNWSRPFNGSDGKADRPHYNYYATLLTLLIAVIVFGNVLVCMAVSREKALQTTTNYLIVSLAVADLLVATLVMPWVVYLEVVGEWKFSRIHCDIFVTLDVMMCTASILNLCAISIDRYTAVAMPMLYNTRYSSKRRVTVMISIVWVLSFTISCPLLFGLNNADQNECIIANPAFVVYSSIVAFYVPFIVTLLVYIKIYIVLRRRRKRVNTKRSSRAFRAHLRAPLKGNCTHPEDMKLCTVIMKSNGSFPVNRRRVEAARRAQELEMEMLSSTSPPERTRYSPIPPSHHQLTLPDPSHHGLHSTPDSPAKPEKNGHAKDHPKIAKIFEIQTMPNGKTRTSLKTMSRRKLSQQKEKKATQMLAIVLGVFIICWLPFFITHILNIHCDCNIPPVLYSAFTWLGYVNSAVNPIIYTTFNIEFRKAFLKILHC
Chain of dopamine D2 receptor (D2R; D2SR; SNAP-D2SR) (Homo sapiens, UniProt P14416, F110A) (P14416 1-414 isoform P14416-2 F110A): as the sequence (P14416 1-414 isoform P14416-2) above, with F110A counted along it
Chain of dopamine D2 receptor (D2R; D2SR; SNAP-D2SR) (Homo sapiens, UniProt P14416, F202A) (P14416 1-414 isoform P14416-2 F202A): as the sequence (P14416 1-414 isoform P14416-2) above, with F202A counted along it
Chain of I183^ECL2A D2R (P14416 whole entry I183A): as the sequence (P14416 whole entry S197A) above, with I183A, A197S counted along it
Chain of E181^ECL2A D2R (P14416 whole entry E181A): as the sequence (P14416 whole entry S197A) above, with E181A, A197S counted along it
Chain of N186^ECL2A D2R (P14416 whole entry N186A): as the sequence (P14416 whole entry S197A) above, with N186A, A197S counted along it
Chain of L174^ECL2A D2R (P14416 whole entry L174A): as the sequence (P14416 whole entry S197A) above, with L174A, A197S counted along it
Chain of dopamine D2 receptor (D2R; D2SR; SNAP-D2SR) (Homo sapiens, UniProt P14416, S193A) (P14416 1-414 isoform P14416-2 S193A): as the sequence (P14416 1-414 isoform P14416-2) above, with S193A counted along it

Clc1cccc(N2CCNCC2)c1Cl [compound 1, DCPP]
cAMP (BRET Biosensor) / pKA [1]: 6.49 ± 0.18 | Ki [2]: 0.575 µM

CCCN1CCN(c2cccc(Cl)c2Cl)CC1 [compound 2]
Ki [2]: 0.0182 µM

CCCCN1CCN(c2cccc(Cl)c2Cl)CC1 [compound 3]
Ki [2]: 0.00501 µM

COCCCCN1CCN(c2cccc(Cl)c2Cl)CC1 [compound 4]
Ki [2]: 0.02 µM

CCCCN1CCN(c2ccccc2OC)CC1 [compound 12]
Ki [2]: 0.0933 µM

NCCc1ccc(O)c(O)c1 [dopamine]
pKA [3]: determine the functional affinity and efficacy of dopamine and ropinirole

CCCN(CCC)CCc1cccc2c1CC(=O)N2 [ropinirole]
pKA [3]: determine the functional affinity and efficacy of dopamine and ropinirole | Ki [2]: 6.61 µM | Ki (N186^ECL2A D2R): 9.77 µM | Ki (L174^ECL2A D2R): 2.24 µM | Ki (I122^3.40A D2R): 7.76 µM | Ki [4]: 42.7 µM | Ki [5]: 100 µM | Ki (V115^3.33A D2R): 18.6 µM | Ki (C118^3.36A D2R): 3.72 µM | Ki (E181^ECL2A D2R): 3.02 µM | Ki [6]: 12.3 µM | Ki (S197^5.46A D2R): 8.51 µM | Ki (I183^ECL2A D2R): 3.16 µM | Ki (T119^3.37A D2R): 4.27 µM
